Measurements as given in the NIST ThermoML archive (doi:10.1021/je050231r).
± gives the expanded uncertainty stated by the source. Blank lines part the entries; values can stand above or below the compound they belong to.

Conditions: Liquid; for mass density: 293.2 K, 101.33 kPa

SMILES: BrCCBr [1,2-dibromoethane]
- mass density: 2179.24 ± 2.4 kg/m3
- vapor or sublimation pressure (404.6 K): 101.81 ± 0.62 kPa
- vapor or sublimation pressure (405.4 K): 102.09 ± 0.52 kPa
- vapor or sublimation pressure (405.5 K): 102.11 ± 0.52 kPa
- vapor or sublimation pressure (405.8 K): 101.86 ± 0.98 kPa

- mass density: 876.53 ± 0.19 kg/m3
- vapor or sublimation pressure (354.4 K): 101.77 ± 5.1 kPa
SMILES: c1ccccc1 [benzene]

SMILES: Brc1ccccc1 [bromobenzene]
- mass density: 1495.23 ± 1.2 kg/m3
- vapor or sublimation pressure (429.4 K): 101.76 ± 2.6 kPa

- mass density: 1022.27 ± 0.27 kg/m3
- vapor or sublimation pressure (358.4 K): 101.94 ± 5.1 kPa
SMILES: Fc1ccccc1 [fluorobenzene]

SMILES: Cc1ccccc1 [toluene]
- mass density: 866.81 ± 0.28 kg/m3
- vapor or sublimation pressure (384.9 K): 102.09 ± 5.1 kPa
